≈ marks a conversion by molar mass, not a printed value. Read-outs that look alike come from different tables or passages of the source.
What was measured:
[1] = system: H9c2 (2-1), normal rat cardiac muscle cells; conditions: 24 h
in vitro = conditions: human, Caco-2
Source text: The intestinal epithelium permeability is a critical characteristic that determines the rate and extent of human absorption and ultimately the bioavailability of a drug candidate. Caco-2 permeability assay allows a rapid assessment of membrane permeability and thus helps to rank-order compounds in terms of their absorption potential.
The Caco-2 cell line is a human colon adenocarcinoma cell line that differentiates in culture and resembles the epithelial lining of the human small intestine.
The apparent permeability coefficients (Papp) was determined in the apical-to-basolateral (A-to-B) direction across the cell monolayers (TC-7 sub-clone of the Caco-2) cultured on polycarbonate membrane filters. Compounds were tested at 50 μM with at a final DMSO concentration of 1%. Samples were analyzed by HPLC-MS or HPLC-MS/MS.
The test compound was added to the apical side and the Papp was determined based on the rate of appearance of the test compound in the basolateral side after 2 h-incubation. Two reference compounds, propranolol (highly permeable) and ranitidine (poorly permeable), are tested in each assay as controls.

CYP2D6 = CYP2D6 (Homo sapiens, UniProt P10635); assay: in vitro; conditions: CYP2D6 (% inhibition)
[2] = system: AML-12, normal mouse liver cells; conditions: 24 h
MB231 = assay: cells; format: cell-based; conditions: Homo sapiens; for CC50: read-out: LC50; for IC (TGI): read-out: TGI
How it was run: (§1)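 Cells plated at 5×10^3 per well; 18 h later, test samples added across 10 to 10^−8 μg/ml; incubation continued 48 h at 37° C, 5% CO2. Cells then fixed with cold TCA, stained with SRB, dye solubilised in Tris, and optical density measured at 490 nm.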

SW-620 = assay: cells; format: cell-based; conditions: Homo sapiens; for CC50: read-out: LC50
How it was run: as §1

MEL-28 = assay: cells; format: cell-based; conditions: Homo sapiens, SK-MEL-28, 48 h; for GI50 / IC (TGI): MEL-28, 48 hours exposure, SRB; for CC50: read-out: LC50, MEL-28, 48 hours exposure, SRB
How it was run: as §1

DU145 = assay: cells; format: cell-based; conditions: Homo sapiens, DU-145, 48 h; for GI50 / IC (TGI): DU145, 48 hours exposure, SRB; for CC50: read-out: LC50, DU145, 48 hours exposure, SRB
How it was run: as §1

A549 = assay: cells; format: cell-based; conditions: Homo sapiens, A549, 48 h; for GI50: read-out: GI50; for IC (TGI): read-out: TGI; for CC50: read-out: LC50, A549, 48 hours exposure, SRB
How it was run: as §1

HT29 = assay: cells; format: cell-based; conditions: Homo sapiens, HT-29, 48 h; for GI50 / IC (TGI): HT29, 48 hours exposure, SRB; for CC50: read-out: LC50, HT29, 48 hours exposure, SRB
How it was run: as §1

MCF = assay: cells; format: cell-based; conditions: Homo sapiens; for CC50: read-out: LC50; for IC (TGI): read-out: TGI
How it was run: as §1

A498 = assay: cells; format: cell-based; conditions: Homo sapiens; for CC50: A498, 48 h, read-out: LC50; for GI50 / IC (TGI): A498, 48 hours exposure, SRB
How it was run: as §1

[3] = s9, 60 min, 1 μM
Procedure: The metabolic stability was determined used human liver S9 homogenate that including both microsomal and cytosolic enzyme activities. The test compound was diluted in methanol (0.625%) and acetonitrile (0.625%) at the concentration 1 μM and incubated in the human liver pool (protein=1 mg/mL) during 60 min at 37° C. Peak areas corresponding to all analytes (metabolic products) were determined by HPLC-MS/MS. Areas were recorded and ratios of peak areas of analytes to that of internal standard for each analyte were determined. The ratio of precursor compound remaining after 60 minutes and the amount remaining at time zero, expressed as percent, are reported as metabolic stability. Higher values mean higher metabolic stability.

physchem [4] = conditions: pH 7.4, log D n-Octanol-Dulbecco's PBS pH 7.4
Procedure: The measurement of partition coefficient was evaluated based on a miniaturized shake-flask procedure. Buffer (Dulbecco's PBS, pH 7.40) was used as the aqueous phase. The tested compound was dissolved in DMSO, at the concentration of 100 μM. The final DMSO concentration (1%.) during the octanol-buffer partitioning are very low to avoid bias on the partitioning. The amount of compound in the buffer phase was determined by HPLC with photodiode array detection after an equilibration phase of 60 min. The amount of compound in the octanol phase is calculated by subtraction of the amount of compound in buffer from the total amount of compound, which is determined from a calibration sample.
Log D is calculated as the Log10 of the amount of compound in the octanol phase divided by the amount of compound in the buffer phase. The effective range of the log D microassay is approximately −0.5 to +4.5.

[5] = system: L8, normal rat skeletal muscle cells; conditions: 24 h
[6] = system: NRK-52E, normal rat kidney cells; conditions: 24 h
CYP3A4 = CYP3A4 (Homo sapiens, UniProt P08684); assay: in vitro; conditions: CYP3A4 (% inhibition)
Sequence of CYP3A4 (P08684 whole entry): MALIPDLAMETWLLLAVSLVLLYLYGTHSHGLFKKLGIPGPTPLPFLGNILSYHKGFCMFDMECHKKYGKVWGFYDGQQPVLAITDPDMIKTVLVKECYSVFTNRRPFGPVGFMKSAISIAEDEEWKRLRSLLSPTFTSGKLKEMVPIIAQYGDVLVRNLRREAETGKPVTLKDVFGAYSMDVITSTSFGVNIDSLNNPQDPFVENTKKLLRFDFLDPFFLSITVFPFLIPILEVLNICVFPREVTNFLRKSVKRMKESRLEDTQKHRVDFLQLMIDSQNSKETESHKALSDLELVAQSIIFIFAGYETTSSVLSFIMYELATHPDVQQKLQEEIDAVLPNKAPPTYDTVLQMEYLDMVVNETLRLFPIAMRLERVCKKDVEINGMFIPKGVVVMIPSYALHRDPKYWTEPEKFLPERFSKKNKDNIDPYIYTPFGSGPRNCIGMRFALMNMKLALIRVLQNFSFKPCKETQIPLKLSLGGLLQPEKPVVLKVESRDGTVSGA

physchem [7] = conditions: pH 7.4, aqueous buffer, Solubility Dulbecco's PBS pH 7.4
[8] = system: FDC-P1, normal mouse myelogeous stem cells; conditions: 24 h
Procedure: In order to assess the cytotoxicity of the drugs to normal cells, we used 96 well plates plated at a density of 5000 cells per well (except for the FDC-P1 which were plated at 12,000 cells per well) with normal cell lines (ATCC, Table 1) maintained as per the directions of the ATCC: AML-12, normal mouse liver cells; NRK-52E, normal rat kidney cells; L8, normal rat skeletal muscle cells; FDC-P1, normal mouse myelogeous stem cells; and H9c2 (2-1), normal rat cardiac muscle cells. The cells in each plate were permitted to settle overnight before adding the test drug.
To each well (100 μl medium) 10 μl of drug in media was added at varying concentrations (1×10-10-0.01 mg/ml final concentration) and further incubated overnight at 37° C. with 5% CO2. After 24 h the following assays were performed. All experiments were repeated at least 3 times and were assayed in duplicate.
MTS assay (CellTiter 96 aqueous) was performed according to the manufacturer's (Promega) directions (for all cell types). Cell viability (mitochondrial activity) is determined via enzymatic conversion of the formazan substrate.

(HEPG2) = conditions: human, 24 h, 30 μM
Procedure: The toxic potential of compounds was investigated in vitro using primary human hepatocytes (HEPG2). The compounds were tested at 30 μM in duplicate with a final DMSO concentration of 1%. After incubation during 24 h at 37° C. the cell viability was determined by the conversion of oxided alarmarBlue (resazurin) to reduced alarmarBlue (resorufin). Chlorpromazine was used as reference compound. Results are expressed as a percent of inhibition of control values.

[9] = SW-620, 48 hours exposure, SRB, read-out: GI50

Sequence of CYP2D6 (P10635 whole entry): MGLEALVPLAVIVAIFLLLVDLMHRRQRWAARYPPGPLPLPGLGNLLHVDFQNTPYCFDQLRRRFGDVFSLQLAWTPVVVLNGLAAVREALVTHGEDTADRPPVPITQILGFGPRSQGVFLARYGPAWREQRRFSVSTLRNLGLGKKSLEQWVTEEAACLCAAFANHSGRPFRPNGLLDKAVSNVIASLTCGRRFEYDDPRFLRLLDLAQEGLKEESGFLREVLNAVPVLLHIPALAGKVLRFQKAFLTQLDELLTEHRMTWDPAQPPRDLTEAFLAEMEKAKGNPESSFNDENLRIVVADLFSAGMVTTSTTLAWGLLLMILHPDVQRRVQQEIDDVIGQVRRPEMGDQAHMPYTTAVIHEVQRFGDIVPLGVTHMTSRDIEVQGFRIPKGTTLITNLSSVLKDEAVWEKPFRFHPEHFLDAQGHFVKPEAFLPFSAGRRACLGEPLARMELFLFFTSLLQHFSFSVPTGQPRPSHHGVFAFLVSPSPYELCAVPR

SMILES	Heart [1]	Papp A→B at 2 h, 50 μM (in vitro)	inhibition at 450 min, 10 µM (CYP2D6)	Liver [2]	CC50 (MB231; 48 h)	GI50 (MB231; MB231, 48 hours exposure, SRB)	CC50 (SW-620; SW-620, 48 h)	IC (TGI) (SW-620; SW-620, 48 hours exposure, SRB)	GI50 (MEL-28)	IC (TGI) (MEL-28)	CC50 (MEL-28)	GI50 (DU145)	IC (TGI) (DU145)	CC50 (DU145)	GI50 (A549; A549, 48 hours exposure, SRB)	CC50 (A549)	GI50 (HT29)	IC (TGI) (HT29)	CC50 (HT29)	CC50 (MCF; 48 h)	further results
COc1ccc2[nH]c3c(c2c1)CCN[C@]31CS[C@@H]2c3c(OC(C)=O)c(C)c4c(c3[C@H](COCC1=O)N1C2[C@H]2c3c(cc(C)c(OC)c3O)C[C@@H]([C@@H]1O)N2C)OCO4 (some centres unmarked) [Compound 27]	9.93E−08	< 11.8 nm/s	13%	1.48E−08	12.7 nM	0.255 nM	1.15 nM	0.637 nM	0.255 nM	0.637 nM	1.27 nM	0.0255 nM	0.0892 nM	3.82 nM	0.255 nM	6.37 nM	0.255 nM	0.764 nM	1.15 nM	11.5 nM	IC (TGI) (MB231; MB231, 48 hours exposure, SRB): 6.37 nM; GI50 (SW-620; [9]): 0.255 nM; IC (TGI) (A549; A549, 48 hours exposure, SRB): 0.892 nM; IC (TGI) (MCF; 48 h): 1.27 nM; GI50 (MCF; MCF, 48 hours exposure, SRB): 0.255 nM; CC50 (A498): 1.27 nM; GI50 (A498): 0.255 nM; IC (TGI) (A498): 0.51 nM; Human Liver S9 Metabolic Stability (% remaining) [3]: 7 % remaining; logD at 60 min (physchem [4]): > 5; Skeletal [5]: 1.54E−08; Kidney [6]: 1.01E−08; inhibition at 30 min, 10 µM (CYP3A4): 53%; solubility (physchem [7]): 2.99 µM (≈ 2.39 µg/mL); Myelo [8]: 1.75E−08
COc1c(C)cc2c(c1O)[C@@H]1C3[C@@H]4SC[C@]5(C(=O)COC[C@@H](c6c7c(c(C)c(OC(C)=O)c64)OCO7)N3[C@@H](O)[C@H](C2)N1C)c1[nH]c2ccc(O)cc2c1CCN5C (some centres unmarked) [Compound 33]	1.27E−06	77.7 nm/s	28%	1.05E−08	12.7 nM	0.255 nM	10.2 nM	1.15 nM	0.255 nM	0.637 nM	1.15 nM	0.382 nM	0.892 nM	3.82 nM	0.382 nM	5.1 nM	0.255 nM	0.764 nM	1.15 nM	11.5 nM	IC (TGI) (MB231; 48 h): 1.27 nM; GI50 (SW-620; [9]): 0.255 nM; IC (TGI) (A549): 1.27 nM; GI50 (MCF; MCF, 48 hours exposure, SRB): 1.02 nM; IC (TGI) (MCF; MCF, 48 hours exposure, SRB): 2.55 nM; CC50 (A498): 1.27 nM; GI50 (A498): 0.255 nM; IC (TGI) (A498): 0.51 nM; Human Liver S9 Metabolic Stability (% remaining) [3]: 10 % remaining; logD at 60 min (physchem [4]): 3.5; Cell Viability (% inhibition) ((HEPG2)): 32 % inhibition; Skeletal [5]: 1.41E−08; Kidney [6]: 7.78E−09; inhibition at 30 min, 10 µM (CYP3A4): 84%; solubility (physchem [7]): 68.9 µM (≈ 55.1 µg/mL); Myelo [8]: 1.92E−08
COc1ccc2c3c([nH]c2c1)[C@@]1(CS[C@@H]2c4c(OC(C)=O)c(C)c5c(c4[C@H](COCC1=O)N1C2[C@H]2c4c(cc(C)c(OC)c4O)C[C@@H]([C@@H]1O)N2C)OCO5)NCC3 (some centres unmarked) [Compound 34]	4.96E−07	50 nm/s	28%	2.55E−06	127 nM	3.82 nM	102 nM	38.2 nM	3.82 nM	12.7 nM	63.7 nM	2.55 nM	3.82 nM	10.2 nM	5.1 nM	89.2 nM	7.64 nM	2.54 nM	11.5 nM	127 nM	IC (TGI) (MB231; 48 h): 10.2 nM; GI50 (SW-620; SW-620, 48 h): 10.2 nM; IC (TGI) (A549; A549, 48 hours exposure, SRB): 25.5 nM; GI50 (MCF; MCF, 48 hours exposure, SRB): 5.1 nM; IC (TGI) (MCF; MCF, 48 hours exposure, SRB): 25.5 nM; CC50 (A498): 63.7 nM; GI50 (A498): 3.82 nM; IC (TGI) (A498): 12.7 nM; Human Liver S9 Metabolic Stability (% remaining) [3]: 24 % remaining; logD at 60 min (physchem [4]): > 5; Cell Viability (% inhibition) ((HEPG2)): 45 % inhibition; Skeletal [5]: 1.48E−08; Kidney [6]: 2.74E−07; inhibition at 30 min, 10 µM (CYP3A4): 80%; solubility (physchem [7]): 17.6 µM (≈ 14.1 µg/mL); Myelo [8]: 1.15E−05
